The supplement of paper PMC7840683
Structures can show the parent of a compound that is named as a salt. ± gives the standard deviation of the averaged measurements.

Test system: HepaRG
Assay: LDH release cytotoxicity, % of total lysis control; higher = more cytotoxic
Conditions: 48 h
Procedure, shortened: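 Duplicate wells of single-lot HepaRG cells, grown on collagen I-coated 96-well plates, received eight-point half-log series of test chemicals with 100 µM as the top concentration. Exposure lasted 48 h in serum-free induction medium with 0.5% DMSO, while total lysis wells received 0.1% Triton X. Resorufin fluorescence (CytoTox-ONE, Tecan Safire) was used to quantify LDH leaked into 50 µL of spent medium. Values for percent cytotoxicity were normalized to on-plate vehicle and total lysis controls and averaged across the duplicates.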

| Compound | LDH release cytotoxicity (0.03162 µM) [%] | LDH release cytotoxicity (0.1 µM) [%] | LDH release cytotoxicity (0.3162278 µM) [%] | LDH release cytotoxicity (1 µM) [%] | LDH release cytotoxicity (3.16228 µM) [%] | LDH release cytotoxicity (10 µM) [%] | LDH release cytotoxicity (31.6228 µM) [%] | LDH release cytotoxicity (100 µM) [%] | other results |
| --- | --- | --- | --- | --- | --- | --- | --- | --- | --- |
| NC(=O)N(O)C1COc2cc(OCc3ccccc3)ccc21 (centres undefined) |  |  |  |  |  |  |  |  | LDH release cytotoxicity (0.02846 µM): -1.76 ± 0.2%; LDH release cytotoxicity (0.09 µM): -2.99 ± 1.7%; LDH release cytotoxicity (0.284605 µM): -1.03 ± 1.1%; LDH release cytotoxicity (0.9 µM): -2.27 ± 0.15%; LDH release cytotoxicity (2.84605 µM): -0.514 ± 0.72%; LDH release cytotoxicity (9 µM): 0.238 ± 0.36%; LDH release cytotoxicity (28.4605 µM): 3.46 ± 0.72%; LDH release cytotoxicity (90 µM): 22.46 ± 0.1% |
| CCCOC(=O)NCCCN(C)C [Propamocarb hydrochloride] | 0.518 ± 0.36 | -0.315 ± 0.73 | -0.112 ± 0.25 | -0.746 ± 0.025 | 0 ± 0.72 | 0.683 ± 0.9 | 0.664 ± 0.54 | 0.411 ± 0.061 |  |
| COC1COCCC1NC1CCC(C(=O)N2CCc3ncc(C(F)(F)F)cc3C2)(C(C)C)C1 (centres undefined) [MK-812] | 0.0558 ± 0.81 | -1.65 ± 0.31 | -1.72 ± 0.43 | -2.52 ± 1.1 | -1.87 ± 1 | -1.43 ± 0.51 | -1.59 ± 0.027 | -0.0412 ± 0.23 |  |
| COc1ccc2cc(S(=O)(=O)NC(CC(=O)NC(Cc3ccc(CN4C(C)CCCC4C)cc3)C(=O)N(C)C(C)C)c3ccc4c(c3)OCO4)ccc2c1 (centres undefined) |  |  |  |  |  |  |  |  | LDH release cytotoxicity (0.0301998 µM): -0.793 ± 0.59%; LDH release cytotoxicity (0.0955 µM): -1.98 ± 1.2%; LDH release cytotoxicity (0.301997 µM): -1.26 ± 0.36%; LDH release cytotoxicity (0.955 µM): -1.65 ± 0.66%; LDH release cytotoxicity (3.01998 µM): -1.13 ± 0.075%; LDH release cytotoxicity (9.55 µM): 1.45 ± 0.6%; LDH release cytotoxicity (30.199752 µM): 70.28 ± 0.7%; LDH release cytotoxicity (95.5 µM): 80.2 ± 1% |
| COCCO [2-Methoxyethanol] | -2.71 ± 0.16 | -2.42 ± 0.11 | -1.84 ± 0.67 | -2.08 | -2.13 ± 0.46 | -1.562 ± 0.005 | 0.278 ± 0.11 | 2.52 ± 0.4 |  |
| COP(=O)(OC)OC(Br)C(Cl)(Cl)Br (centres undefined) [Naled] | -2.18 ± 0.54 | -1.58 ± 0.07 | -1.53 ± 0.67 | -2.25 ± 0.69 | -0.95 ± 0.64 | -1.19 ± 0.38 | -0.943 ± 0.2 | -0.896 ± 0.77 |  |
| Cc1c(C(=O)O)c(O)cc2c1C(=O)c1c(O)c(C3OC(CO)C(O)C(O)C3O)c(O)c(O)c1C2=O (centres undefined) [Carminic acid] | -11.2 ± 0.91 | -11.08 ± 0.041 | -10.7 ± 0.6 | -11.1 ± 1.1 | -11.2 ± 0.61 | -11 ± 1.2 | -9.8 ± 2.3 | -10.4 ± 0.35 |  |
| CC1=NC(=O)N(C(C)(C)C)C(=O)C1Cl (centres undefined) [Terbacil] |  | -3.63 ± 0.95 |  | -3.38 ± 0.33 | -2.68 ± 1.1 | -2.77 ± 0.39 | -1.74 ± 0.92 | 2.1 ± 0.37 | LDH release cytotoxicity (0.031623 µM): -1.65 ± 0.11%; LDH release cytotoxicity (0.316228 µM): -2.5 ± 0.94% |
| Clc1cc(Cl)c2c(c1)N=C1CCCCCN1C2 | -2.23 ± 0.45 | -1.38 ± 0.19 | -0.748 ± 0.22 | -1.45 ± 0.52 | -1.34 ± 0.11 | 1.41 ± 0.42 | 1.58 ± 0.34 | 3.36 ± 0.44 |  |
| O=C(O)C(F)(F)C(F)(F)C(F)(F)C(F)(F)C(F)(F)C(F)(F)C(F)(F)C(F)(F)C(F)(F)C(F)(F)F [Perfluoroundecanoic acid] |  |  |  |  |  |  |  |  | LDH release cytotoxicity (0.0302 µM): -0.896 ± 0.4%; LDH release cytotoxicity (0.0955 µM): -2.14 ± 0.16%; LDH release cytotoxicity (0.301998 µM): -0.462 ± 0.4%; LDH release cytotoxicity (0.955 µM): -1.31 ± 0.4%; LDH release cytotoxicity (3.01998 µM): -1.93 ± 0.38%; LDH release cytotoxicity (9.55 µM): -1.78 ± 2%; LDH release cytotoxicity (30.1998 µM): -0.387 ± 0.52%; LDH release cytotoxicity (95.5 µM): 1.42 ± 0.46% |
| Clc1nc(Cl)c(Cl)c(Cl)c1Cl [Pentachloropyridine] | -0.545 ± 0.73 | -1.54 ± 0.25 | -1.28 ± 1.4 | -1.08 ± 1.1 | -0.873 ± 0.5 | -1.56 ± 0.52 | -0.833 ± 0.26 | 0.716 ± 0.84 |  |
| CC1(C)C(=O)N(Cl)C(=O)N1Cl [1,3-Dichloro-5,5-dimethylhydantoin] | 0.112 ± 0.0031 | -1.567 ± 0.014 | -0.979 ± 0.12 | -0.604 ± 0.23 | -0.443 ± 0.098 | -0.243 ± 0.15 | 1.54 ± 2 | 0.626 ± 0.89 |  |
| Cc1cc(Cl)ccc1OCC(=O)O [MCPA] | -0.121 ± 0.17 | -0.914 ± 0.53 | -0.511 ± 0.28 | -0.689 ± 0.68 | -0.578 ± 0.24 | -0.154 ± 0.47 | 0.865 ± 0.061 | 1.22 ± 0.86 |  |
| O=C=NCCCCCCN=C=O [1,6-Diisocyanatohexane] | -1.38 ± 0.69 | -0.852 ± 1.4 | 0.3 ± 0.43 | -0.656 ± 0.29 | 0.0821 ± 0.041 | 0.975 ± 0.72 | 0.748 ± 0.51 | 0.578 ± 0.58 |  |
| Cc1nn(-c2cc(NS(C)(=O)=O)c(Cl)cc2Cl)c(=O)n1C(F)F [Sulfentrazone] | -1.66 ± 0.5 | -1.99 ± 0.051 | -2.52 ± 0.25 | -2.37 ± 0.49 | -0.982 ± 0.51 | -1.17 ± 0.24 | -1.23 ± 0.51 | 0.713 ± 0.36 |  |
| COc1ccc2sc(C(=O)Nc3nnn[nH]3)c(OC(C)C)c2c1 [CI-959] | -0.617 ± 0.98 | -2.08 ± 0.33 | -1.65 ± 0.028 | -1.45 ± 0.29 | -2.51 ± 0.029 | -2.33 ± 0.67 | 3.57 ± 1.1 | 9.3 ± 1.3 |  |
| CC(COc1ccc(Oc2ccccc2)cc1)Oc1ccccn1 (centres undefined) [Pyriproxyfen] |  | -2.74 ± 1.2 |  | -3 ± 0.73 | -3.01 ± 0.27 | -2.89 ± 0.094 | -1.8 ± 0.12 | 1.18 ± 2.2 | LDH release cytotoxicity (0.031623 µM): -1.46 ± 0.43%; LDH release cytotoxicity (0.316228 µM): -2.85 ± 0.24% |
| CC(C)(C)C(O)C(Oc1ccc(Cl)cc1)n1cncn1 (centres undefined) [Triadimenol] | -1.62 ± 0.58 | -2.06 ± 0.53 | -1.64 ± 1.5 | -1.25 ± 0.42 | -1.3 ± 0.73 | -0.0607 ± 0.57 | -0.253 ± 0.65 | 0.57 ± 0.18 |  |
